In patent US20230374076A1, “THE PREPARATION OF CERAMIDE CONJUGATES AND DERIVATIVES OF SP[…]” (KODE BIOTECH LIMITED, priority 2017, published 2023):

Test system: red blood cells
Test: Incorporation of the ceramide conjugate into red blood cell membranes, fluorescence scored after labelling with Avidin Alexa Fluor 488
Format: cell-based
Protocol: A 50 μL volume of packed red blood cells was re-suspended in an equal volume of a dispersion in phosphate buffered saline (PBS) (pH 7.2) of the ceramide conjugate (X). The re-suspended cells were incubated at 37° C. for two hours and then washed once with PBS. The modified cells were diluted with PBS to provide a suspension at a concentration equivalent to 5% of the packed cell volume. A 30 μL volume of the diluted suspension was then mixed with an equal volume of a 0.1 mg/mL solution of Avidin Alexa Flour™ 488 in PBS. The mixture was incubated at room temperature for 30 minutes before washing and re-suspending the modified cells in PBS. The fluorescence of cells in a 5 μL volume was observed using a microscope (Olympus BX51) at 400 x magnification.
The modified cells prepared using dispersions of the ceramide conjugate (X) at different concentrations (0 (control), 0.5, 5 and 50 μM) were scored.

Substance: ceramide-β-Ala-CMG(2)-biot [ceramide conjugate (X)]
- Incorporation into cell membranes (fluorescent labelling of the modified cells): spontaneously incorporated into cell membranes
